Measurements as given in article PMC5597593, “Polyphenols journey through blood-brain barrier towards neuronal protection” (Scientific Reports, 2017).
Entries after “also recorded” stand apart in the source; their conditions may differ.

How the values were obtained:
[1] = parameters: method as in PMID 25571923; details: human plasma samples; cited from earlier work
HBMEC line [2] = test: Endothelial transport across confluent HBMEC two chamber BBB model, LC-Orbitrap MS; format: in vitro ADME, human; details: for Endothelial transport (lower/(upper+lower) compartment): 5 μM in upper chamber, 2 h of incubation
Protocol: We used the well-validated confluent HBMEC two chamber BBB model[32] to investigate endothelium transport with metabolite quantification by Orbitrap LC-MS techniques. (Poly)phenol metabolites were added in the upper chamber and their putative transport through the BBB endothelium assessed after 2 h of incubation (Fig. 1a).
Human brain microvascular endothelial cell (HBMEC) line was used as a simplified and validated in vitro model of the BBB[32], [44], [45], [62]. This cell line was derived from primary cultures of HBMEC transfected with SV40 large T antigen. HBMEC line was cultured in RPMI 1640 medium (Sigma-Aldrich) supplemented with 10% fetal bovine serum (FBS - Biochrom AG), 10% NuSerum IV (BD Biosciences), 1% non-essential amino acids (NEAA - Biochrom AG), 1% minimal essential medium (MEM) vitamins (Biochrom AG), 1 mM sodium pyruvate (Biochrom AG), 2mM L-glutamine (Biochrom AG), and 1% antibiotic-antimycotic solution (Sigma-Aldrich). For immunostaining and cytoprotection studies, cells were seeded at a density of 8 × 10^4 cell/mL in 24-well and 96-well plates, respectively, and treated after 48 h in culture. For integrity and transport studies, cells were seeded on polyester transwell inserts (0.4 μm, Corning Costar Corp., USA) at a density of 8 × 10^4 cell/insert and treated after 8 days in culture. Inserts and plates were coated with rat-tail collagen-I (BD Biosciences, Erembodegem, Belgium) before seeding. All experiments were performed after monolayer formation.
HBMEC were plated in semi-permeable membranes (inserts) placed in cell culture wells. This two-chamber system, where the upper and lower chambers mimic the blood and brain compartments, respectively, and the confluent HBMEC monolayer represents the BBB. Transport assays were conducted in HBSS (Hank’s Balanced Salt Solution) with calcium and magnesium (Gibco), supplemented with 0.1% FBS. Confluent monolayers of HBMEC were incubated with 5 μM of each compound for 2 h, time described for compounds to interact and/or being transported across cells, [69]. […]. Monolayer integrity was ensured in all experiments as described. In the end, cell medium from upper and lower compartments were collected and frozen at −80 °C until analysis. Transport analysis were performed after sample deproteinization by LC-Orbitrap MS as described below.
To 1 mL of upper or lower compartment cell medium it was added: 139 µL of 50% formic acid, ascorbic acid (final concentration of 1 mM) and taxifolin as internal standard (final concentration of 9 µM). To precipitate proteins, 2.5 mL of ACN was added dropwise and samples were vortexed before centrifugation at 3200 g for 15 min. The supernatant was removed and dried under centrifugal evaporation (CentriVap Vaccum Concentrator, Labconco). Samples were dissolved in 5% ACN in 0.1% formic acid and immediately analyzed by LC-Orbitrap MS.
Samples were separated on an HPLC Accela 600 HPLC system (Thermo Scientific, Bremen, Germany) using a C18 Synergi Hydro RP18 column (Phenomenex, Macclesfield, UK) 4 μm particle size and dimensions 2 mm ID × 150 mm. […] Analysis was done on an LTQ OrbitrapTM XL hybrid mass spectrometer (Thermo Scientific, Bremen, Germany).
MS analysis was performed using data-dependent Nth order double play analysis comprising full scan mass range 80–2000 amu, 30 000 resolution, data-type centroid and data dependent MS/MS (60 s of exclusion duration) on the top three most intense ions detected above threshold automatically in the independent scan event. ESI settings were as follows: source voltage, 3.4 kV; capillary temperature was 275 °C with a sheath gas at 40 psi and auxiliary gas at 5 psi. MS data handling software (Xcalibur QualBrowser software, Thermo Electron Corp.) was used to search for predicted metabolites by their appropriate m/z value. All peaks were checked for m/z value and fragmentation products. […]

HBMEC = HBMEC metabolization: search for novel cellular metabolites by LC-Orbitrap MS; format: in vitro ADME, human; details: after addition of Pyr-sulf in upper compartment; compared with acetylcysteine-pyrogallol
Protocol: Search for novel compounds resulting from HBMEC metabolization was performed in the same samples using Xcalibur QualBrowser software using an in-house database of putative bioavailable (poly)phenol metabolites[30]. Putative ID of predicted metabolites was determined by exact mass, according to their appropriate m/z value.

β-III tubulin = test: Western blot of neuronal marker in 3D aggregates; format: cell-based, human; details: pre-incubation with 5µM Pyr-sulf or 200nM Idebenone, normalized to GAPDH
Protocol: (§1) NT2 aggregates and N9 protein samples western blot analysis was performed accordingly to[41]. Aggregates were lysed with TX-100 lysis buffer (50 mM Tris, 5 mM EDTA, 150 mM NaCl, 1% Triton X-100, pH 7.4) and N9 protein extraction was performed with RIPA buffer. Primary antibodies were incubated overnight at RT, followed by secondary antibodies (horseradish peroxidase-conjugated, ECL anti-mouse IgG, anti-rat IgG or anti-rabbit IgG; Pierce, Millipore and GE Healthcare), incubated for 2 h at room temperature. Anti-GAPDH antibody (Thermo Scientific) was used as loading control. Primary antibodies used for protein detection were: anti-βIII-Tubulin (Millipore), anti-GFAP (DAKO), and MitoProfile Total OXPHOS WB primary antibody cocktail (Abcam), anti-phospho-NF-κB p65 (ser536) antibody (Cell Signalling), anti-NF-κB p65 (C-20) (Santa Cruz Biotechnology), and anti-IκB-α (C-21) antibody (Santa Cruz Biotechnology). Membranes were developed using Amersham ECL Prime Western Blotting Detection Reagent (GE Healthcare) and visualized using a ChemiDocTM XRS + System (BioRad).

HBMEC line [3] = test: Cytoprotection in HBMEC submitted to oxidative stress (H2O2); format: cell-based, human; details: pre-incubation 5 µM 24 h, then 300 µM H2O2 24 h
Protocol: HBMEC were incubated in the presence of H2O2 (Sigma-Aldrich). Briefly, 24 h after seeding, cells growth medium was removed and cells were pre-incubated for 24 h with 5 µM of each compound. After pre-incubation, media was replaced by new media containing 300 µM H2O2, for 24 h[71], [72]. In the end, medium was removed and cell viability was assessed using the CellTiter-Blue® Cell Viability Assay (Promega), according to the manufacturer’s instructions.

NF-κB p65 = NF-κB p65 phosphorylation (ser536) ratio in N9 microglia (western blot); format: cell-based, murine; details: N9 cells; pre-treatment before LPS; 15 to 60 min
Protocol: N9 microglial cells were plated into 6-well plates (5 × 10^5 cells mL^−1) and then pre-incubated with 5 µM of each (poly)phenol metabolite. After 6 h, medium was discarded and cells were washed once with phosphate buffer saline (PBS) prior to addition of fresh medium with 300 ng/mL lipopolysaccharide from Escherichia coli 055:B5 (LPS, Sigma–Aldrich). Pro-inflammatory mediators release to medium were quantified as described below.
as §1, with “Membranes were developed using Amersham ECL Prime Western Blotting Detection Reagent (GE Healthcare) and visualized using a ChemiDocTM XRS + System (BioRad).” left out

[4] = test system: 3D aggregates containing neurons and astrocytes (NT2); test: Neuroprotection in 3D co-cultures of neurons and astrocytes (t-BHP injury); format: cell-based, human; details: pre-incubation 5 µM 24 h, then 300 µM t-BHP, 48 h
Protocol: NTera-2/cl.D1 (NT2) cells, obtained from American Type Cell Culture Collection (ATCC), were differentiated in stirred suspension culture systems, as 3D aggregates, as previously described. A single cell suspension of undifferentiated NT2 cells was seeded in DMEM (Dulbeco Minimum Essential Media), 10% FBS, 1% P/S (all from Invitrogen), in a 125 mL spinner vessel equipped with ball impeller (Wheaton). After three days of aggregation, differentiation was induced by addition of 10 µM retinoic acid (Sigma-Aldrich), for three weeks, with a 50% medium exchange performed every 2–3 days. Following this period (from day 24 onwards), the medium was composed by DMEM, 5% FBS, 1% P/S. Stable 3D co-cultures of neurons and astrocytes were maintained up to day 50 of culture and applied in neuroprotection assays (from day 38 to day 50).
Cell viability was accessed before exposure to test compounds, before t-BHP lesion induction and 48 h after lesion induction by PrestoBlue® Cell Viability Reagent (Thermo Fisher Scientific), accordingly to manufacturer’s instructions. Idebenone (provided by Grupo Tecnimede) was used as positive control. Final cell viability was calculated as a percentage of cell viability before lesion induction.

P-gp = biological target: T1, P-gp (Homo sapiens, UniProt P08183); test: P-gp functional assay, Rhodamine 123 accumulation in HBMEC; format: cell-based; details: 5 μM
T1 construct: endogenous in cells; host or cells: HBMEC line (human brain microvascular endothelial cells immortalised with SV40 large T antigen)
Protocol: Activity of each efflux transporter was determined by measuring cellular accumulation of respective substrate[65], [66], and results were expressed as fold-change compared to the respective control. […] The solution was quickly removed, HBMEC were washed three times with PBS and solubilized in 0.1 M NaOH. Substrate content was determined using a FLUOstar Omega fluorescent plate reader (BMG Labtechnologies, Ortenberg, Germany; for P-gp, excitation at 505 nm, emission at 534 nm; for MRP1, excitation at 495 nm, emission at 516 nm; for BCRP excitation at 503 nm, emission at 512 nm). […] Protein content was evaluated by the Bradford method[67] using Bio-Rad’s Protein Assay reagent (Bio-Rad).

[5] = test system: primary mouse cerebellar granule cells; test: Neuroprotection in cerebellar granule cells exposed to glutamate excitotoxicity; format: cell-based; details: pre-incubation 5 µM 24 h, then 100 µM glutamate 24 h
Protocol: Primary cultures of cerebellar granule cells were prepared according to the already described method. Cells were isolated from cerebella of 7d-old BALB-C mice and 0.5 × 10^6 cell/mL were cultured in Neurobasal Medium (Gibco) supplemented with 2% B-27 without antioxidants (Gibco) and 2% KCl (20 mM, Sigma-Aldrich), containing 0.25% L-glutamine (200 mM, Sigma-Aldrich) and 0.48% penicillin-streptomycin (P/S, 5000 U mL^−1, Gibco). Experiments were performed on 24-well plates with coverslips coated with 50 µg/mL poly-D-lysine (Sigma-Aldrich). 20 µM of cytosine arabinoside (Sigma-Aldrich) was added 48 h after inoculation to prevent glia cell proliferation. All the experiments were performed between days 7–11 in culture.
Physiological concentrations (5 µM) of the two most abundant metabolites were added to the cells at 7 d in culture. Cells were then incubated for 24 h and morphology was evaluated. At day 8 in culture, 100 µM of glutamate (Sigma-Aldrich) was added to the respective wells. Cells were incubated for another 24 h, morphology was evaluated and viability determined by fluorescence microscopy through Propidium Iodide (PI) and Hoechst 33342 staining, as previously described.

T1 sequence (P08183 whole entry): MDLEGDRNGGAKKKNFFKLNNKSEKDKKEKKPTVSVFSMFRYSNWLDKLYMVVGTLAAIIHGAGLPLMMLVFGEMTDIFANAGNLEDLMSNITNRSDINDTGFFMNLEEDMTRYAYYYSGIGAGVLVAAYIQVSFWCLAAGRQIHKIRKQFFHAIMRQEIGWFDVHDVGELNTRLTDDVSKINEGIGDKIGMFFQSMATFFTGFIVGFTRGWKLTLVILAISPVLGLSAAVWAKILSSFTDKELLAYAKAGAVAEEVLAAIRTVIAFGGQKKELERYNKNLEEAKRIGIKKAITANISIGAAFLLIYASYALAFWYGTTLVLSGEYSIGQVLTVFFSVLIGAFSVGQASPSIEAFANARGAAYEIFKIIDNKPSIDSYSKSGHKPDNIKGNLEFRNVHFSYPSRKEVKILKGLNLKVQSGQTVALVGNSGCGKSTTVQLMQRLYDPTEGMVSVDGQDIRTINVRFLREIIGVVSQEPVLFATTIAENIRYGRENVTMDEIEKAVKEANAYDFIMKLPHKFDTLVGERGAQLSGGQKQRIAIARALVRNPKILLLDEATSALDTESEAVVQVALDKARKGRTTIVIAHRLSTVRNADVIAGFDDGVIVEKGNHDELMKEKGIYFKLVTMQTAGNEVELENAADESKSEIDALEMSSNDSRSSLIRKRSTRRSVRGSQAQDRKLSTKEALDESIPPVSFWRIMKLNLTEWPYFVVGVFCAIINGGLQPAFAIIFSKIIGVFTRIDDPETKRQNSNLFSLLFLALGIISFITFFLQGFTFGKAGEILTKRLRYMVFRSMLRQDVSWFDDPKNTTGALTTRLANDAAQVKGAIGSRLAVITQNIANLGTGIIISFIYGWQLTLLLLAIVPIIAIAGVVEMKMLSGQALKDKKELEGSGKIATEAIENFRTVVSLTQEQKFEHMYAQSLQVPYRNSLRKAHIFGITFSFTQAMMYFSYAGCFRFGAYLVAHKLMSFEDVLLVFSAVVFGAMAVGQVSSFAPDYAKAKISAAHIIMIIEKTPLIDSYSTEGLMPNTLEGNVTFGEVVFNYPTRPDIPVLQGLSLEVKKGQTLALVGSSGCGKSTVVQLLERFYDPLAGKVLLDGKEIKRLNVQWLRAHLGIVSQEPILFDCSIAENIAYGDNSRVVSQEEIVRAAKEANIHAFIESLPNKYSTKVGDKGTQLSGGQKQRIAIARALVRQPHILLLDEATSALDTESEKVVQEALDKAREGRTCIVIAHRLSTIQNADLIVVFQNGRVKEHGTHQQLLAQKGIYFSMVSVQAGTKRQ

| Molecule | Cmax [1] | Endothelial transport (lower/(upper+lower) compartment) (HBMEC line [2]) | other results |
| --- | --- | --- | --- |
| 1-O-methylpyrogallol-O-sulfate [1-MePyr-sulf] | 2880 ± 1800 nM | less effectively transported |  |
| COc1c(O)cc(C(=O)O)cc1OS(=O)(=O)O [4-MeGA-sulf, 4-O-methylgallic acid-3-O-sulfate] | 2030 ± 1100 nM | increased BBB permeation compared with 4-methylgallic acid (4-MeGA) |  |
| N[C@@H](CCC(=O)N[C@@H](CSc1ccc(O)c(O)c1O)C(=O)NCC(=O)O)C(=O)O [Glutathionyl-pyrogallol] |  |  | Relative abundance (peak areas) of novel metabolite (HBMEC): detected in higher amounts |
| COc1cc(C(=O)O)ccc1OS(=O)(=O)O [VA-sulf, Vanillic acid 4-O-sulfate] | 1340 ± 1300 nM |  |  |
| O=S(=O)(O)Oc1c(O)cccc1O [Pyr-2-sulf, Pyrogallol-2-O-sulfate] |  | detected only Pyr-2-sulf in the basolateral compartment |  |
| COC1=C(OC)C(=O)C(CCCCCCCCCCO)=C(C)C1=O [idebenone] |  |  | β-III tubulin protein levels after t-BHP lesion (β-III tubulin): increased β-III tubulin protein levels |
| O=S(=O)(O)Oc1cccc(O)c1O [Pyr-1-sulf, Pyrogallol-1-O-sulfate] |  |  | Endothelial transport after 24 h (HBMEC line [2]; Pyr-sulf mixture 5 μM, 24 h incubation): no transport |
| COc1c(O)cccc1OS(=O)(=O)O [2-MePyr-sulf, 2-O-methylpyrogallol-1-O-sulfate] | 1970 ± 1000 nM | transported as effectively as Pyr-sulf |  |
| COc1c(O)cc(C(=O)O)cc1O [4-MeGA, 4-O-methylgallic acid] | 300 ± 100 nM |  |  |
| O=S(=O)(O)Oc1ccccc1O [Cat-sulf, Catechol-O-sulfate] | 12200 ± 5900 nM |  | Endothelial transport after treatment with BCRP specific inhibitor Ko 143 (HBMEC line [2]; 5 μM, 1 μM Ko 143, p < 0.05 relatively to No inhibitor): significant increase; Endothelial transport along time (HBMEC line [2]; 5 μM, 2, 6 and 24 h): significant increase in transport percentage; Cell viability of HBMEC after H2O2 injury (HBMEC line [3]): improved cell viability; Kinetics of NF-κB phosphorylated-p65/total p65 ratio (NF-κB p65): unchanged; Cell viability of 3D aggregates after t-BHP-induced injury [4]: significant neuroprotection; P-gp activity (Rhodamine 123 accumulation) in the presence of metabolite (P-gp): no statistically- significant alterations; Cell viability of cerebellar granule cells under glutamate-induced excitotoxicity [5]: improved cell viability |
| Cc1ccc(OS(=O)(=O)O)c(O)c1 [4-MeCat-sulf, 4-Methylcatechol O-sulfate] | 640 ± 500 nM | more effectively transported than catechol-O-sulfate (Cat-sulf); also recorded: higher endothelial transport percentage |  |
